For orientation: IC50 means the point on the concentration scale where inhibition reaches its midpoint. The low end stands for greater potency, the high end for weaker potency.

The text below walks through data of patent US10413562B2, “Compositions and methods for the production of pyrimidine and pyridine compounds with BTK inhibitory activity” (Merck Patent GmbH, priority 2011, dated 2019).

Assay [1] has as its system PBMC. Kind of assay: Time dependent PBMC IC50 assay. Format: cell-based. As to the method: Compounds described by embodiments of the present invention were assayed using a time dependent PMBC assay.
Assay [2] concerns NZB/W F1 mice. The assay can be described thus: Interferon-alpha accelerated systemic lupus erythematosus (SLE) mouse model. As to conditions: ADV-IFN-alpha accelerated SLE, oral daily 0.1, 0.3, 1 or 3 mg/kg from day 14. In kind it is in vivo. As to the method: 1-(4-(((6-amino-5-(4-phenoxyphenyl)pyrimidin-4-yl)amino)methyl)piperidin-1-yl)prop-2-en-1-one, designated as “CPD. B”, was evaluated in an interferon-alpha accelerated SLE mouse model. NZB/W F1 mice received i.v. injection at day 0 and day 1 of 10^8 infectious units of adenovirus (ADV-IFN-α) to deliver a transient overexpression on interferon alpha. Oral dosing of the different group treatments was initiated on day 14 and continued daily at 24 hour intervals until the end of the study. Treatment groups consisted of 20% Kleptose HPB in Na-citrate buffer (vehicle) or 0.1, 0.3, 1, or 3 mg/kg of Cpd. […] As shown in Panel 1B Cpd. […] FIG. 2 presents data from another interferon-alpha accelerated SLE experiment in mice. NZB/W F1 mice received i.v. injections at day 0 and day 1 of 10^8 infectious units of adenovirus (ADV-IFN-α) to deliver a transient overexpression on interferon alpha. Oral dosing of the different group treatments (n=10) was initiated on day 14 and continued daily at 24 hour intervals until the end of the study. Treatment groups consisted of 20% Kleptose HPB in Na-citrate buffer (vehicle), 0.1, 0.3, 1, or 3 mg/kg of Cpd. B or Cell Cept®. […] Statiscal analysis was performed using Two way ANOVA with Bonferroni post test with all groups compared to vehicle treated group (*=p<0.05, **=p<0.01, ***=p<0.001).

`C=CC(=O)N1C2CCC1CC(CNc1ncnc(N)c1-c1ccc(Oc3ccccc3)cc1)C2` (centres unmarked) [Compound A48, 1-(3-(((6-amino-5-(4-phenoxyphenyl)pyrimidin-4-yl)amino)methyl)-8-azabicyclo[3.2.1]octan-8-yl)prop-2-en-1-one] had an IC50 in assay [1] of under 1000 nM.
Consider `C=CC(=O)N1CCC(CNc2ncnc(N)c2-c2ccc(Oc3ccccc3)cc2)CC1` [Cpd. B, 1-(4-(((6-amino-5-(4-phenoxyphenyl)pyrimidin-4-yl)amino)methyl)piperidin-1-yl)prop-2-en-1-one], for which the disease activity result in assay [2] is “reduces the disease activity in a dose-dependent manner”.
